Assay results reported in ChEMBL document CHEMBL3885881, “DrugMatrix”.

Organism: Rattus norvegicus
Test: DrugMatrix - Regimen: Daily Repeat
Format: toxicity, organism-based, Sprague-Dawley
Design: regimen Daily Repeat, gender Male, age 6-8 weeks
Settings: in vivo, ip, 0 mg/kg, route intraperitoneal, dose level Control, vehicle 100 % SALINE; for ABSOLUTE BASOPHIL / ABSOLUTE EOSINOPHIL / ABSOLUTE LYMPHOCYTE / ABSOLUTE MONOCYTE / ABSOLUTE SEGMENTED NEUTROPHIL / BASOPHIL / EOSINOPHIL / ERYTHROCYTE COUNT / HEMATOCRIT / HEMOGLOBIN / LEUKOCYTE COUNT / LYMPHOCYTE / MEAN CORPUSCULAR HEMOGLOBIN / MEAN CORPUSCULAR HEMOGLOBIN CONCENTRATION / MEAN CORPUSCULAR VOLUME / MONOCYTE / NEUTROPHIL / PLATELET COUNT: tissue Blood
[1] = 120 h, tissue Plasma, time 5 day
[2] = […], tissue Plasma, time 14 day
[3] = […], tissue Plasma, time 28 day

TRANSPLATIN
ABSOLUTE BASOPHIL (120 h, time 5 day): 32 cells/µL | ABSOLUTE EOSINOPHIL (120 h, time 5 day): 110 cells/µL | ABSOLUTE LYMPHOCYTE (120 h, time 5 day): 6630 cells/µL | ABSOLUTE MONOCYTE (120 h, time 5 day): 140 cells/µL | ABSOLUTE SEGMENTED NEUTROPHIL (120 h, time 5 day): 1170 cells/µL | BASOPHIL (120 h, time 5 day): 0.38% | EOSINOPHIL (120 h, time 5 day): 1.28% | ERYTHROCYTE COUNT (120 h, time 5 day): 7.45 x10E6/uL | HEMATOCRIT (120 h, time 5 day): 45.74% | HEMOGLOBIN (120 h, time 5 day): 14.72 G/DL | LEUKOCYTE COUNT (120 h, time 5 day): 8.11 x10E3/uL | LYMPHOCYTE (120 h, time 5 day): 81.3% | MEAN CORPUSCULAR HEMOGLOBIN (120 h, time 5 day): 19.76 pg | MEAN CORPUSCULAR HEMOGLOBIN CONCENTRATION (120 h, time 5 day): 32.16 G/DL | MEAN CORPUSCULAR VOLUME (120 h, time 5 day): 61.38 fL | MONOCYTE (120 h, time 5 day): 1.76% | NEUTROPHIL (120 h, time 5 day): 14.9% | PLATELET COUNT (120 h, time 5 day): 1322.4 x10E3/uL | ALANINE AMINOTRANSFERASE [1]: 25.8 u/L | ALBUMIN [1]: 3.64 G/DL | ASPARTATE AMINOTRANSFERASE [1]: 81.4 u/L | BLOOD UREA NITROGEN [1]: 14.4 mg/dL | CHOLESTEROL [1]: 69.2 mg/dL | CREATINE PHOSPHOKINASE [1]: 303.2 u/L | CREATININE [1]: 0.56 mg/dL | GLUCOSE [1]: 125.4 mg/dL | LACTATE DEHYDROGENASE [1]: 105.4 u/L | LIPASE [1]: 22.4 u/L | POTASSIUM [1]: 5.52 MEQ/L | SODIUM [1]: 147 MEQ/L | TOTAL BILIRUBIN [1]: 0.2 mg/dL | TOTAL PROTEIN [1]: 6.1 G/DL | URIC ACID [1]: 1.06 mg/dL | ABSOLUTE BASOPHIL ([…], time 14 day): 130 cells/µL | ABSOLUTE EOSINOPHIL ([…], time 14 day): 140 cells/µL | ABSOLUTE LYMPHOCYTE ([…], time 14 day): 13500 cells/µL | ABSOLUTE MONOCYTE ([…], time 14 day): 400 cells/µL | ABSOLUTE SEGMENTED NEUTROPHIL ([…], time 14 day): 2330 cells/µL | BASOPHIL ([…], time 14 day): 0.72% | EOSINOPHIL ([…], time 14 day): 0.86% | ERYTHROCYTE COUNT ([…], time 14 day): 7.74 x10E6/uL | HEMATOCRIT ([…], time 14 day): 45.98% | LEUKOCYTE COUNT ([…], time 14 day): 16.61 x10E3/uL | LYMPHOCYTE ([…], time 14 day): 81.34% | MEAN CORPUSCULAR HEMOGLOBIN ([…], time 14 day): 18 pg | MEAN CORPUSCULAR HEMOGLOBIN CONCENTRATION ([…], time 14 day): 30.22 G/DL | MEAN CORPUSCULAR VOLUME ([…], time 14 day): 59.4 fL | MONOCYTE ([…], time 14 day): 2.46% | NEUTROPHIL ([…], time 14 day): 14.14% | PLATELET COUNT ([…], time 14 day): 1445.5 x10E3/uL | ABSOLUTE BASOPHIL ([…], time 28 day): 91 cells/µL | ABSOLUTE EOSINOPHIL ([…], time 28 day): 110 cells/µL | ABSOLUTE LYMPHOCYTE ([…], time 28 day): 9910 cells/µL | ABSOLUTE MONOCYTE ([…], time 28 day): 210 cells/µL | ABSOLUTE SEGMENTED NEUTROPHIL ([…], time 28 day): 1560 cells/µL | BASOPHIL ([…], time 28 day): 0.77% | EOSINOPHIL ([…], time 28 day): 0.92% | ERYTHROCYTE COUNT ([…], time 28 day): 8.21 x10E6/uL | HEMATOCRIT ([…], time 28 day): 47.53% | HEMOGLOBIN ([…], time 28 day): 15.65 G/DL | LEUKOCYTE COUNT ([…], time 28 day): 11.91 x10E3/uL | LYMPHOCYTE ([…], time 28 day): 83.34% | MEAN CORPUSCULAR HEMOGLOBIN ([…], time 28 day): 19.07 pg | MEAN CORPUSCULAR HEMOGLOBIN CONCENTRATION ([…], time 28 day): 32.93 G/DL | MEAN CORPUSCULAR VOLUME ([…], time 28 day): 57.9 fL | MONOCYTE ([…], time 28 day): 1.68% | NEUTROPHIL ([…], time 28 day): 12.97% | PLATELET COUNT ([…], time 28 day): 1323.8 x10E3/uL | ALANINE AMINOTRANSFERASE [2]: 31.6 u/L | ALBUMIN [2]: 3.66 G/DL | ALKALINE PHOSPHATASE [2]: 228.6 u/L | ASPARTATE AMINOTRANSFERASE [2]: 79.6 u/L | BLOOD UREA NITROGEN [2]: 11.2 mg/dL | CHLORIDE [2]: 107 MEQ/L | CHOLESTEROL [2]: 57 mg/dL | CREATININE [2]: 0.5 mg/dL | GLUCOSE [2]: 124.4 mg/dL | LACTATE DEHYDROGENASE [2]: 106.4 u/L | LIPASE [2]: 24.4 u/L | PHOSPHORUS [2]: 10.52 mg/dL | POTASSIUM [2]: 6.34 MEQ/L | SODIUM [2]: 149.2 MEQ/L | TOTAL BILIRUBIN [2]: 0.2 mg/dL | TOTAL PROTEIN [2]: 6.48 G/DL | URIC ACID [2]: 0.94 mg/dL | ALANINE AMINOTRANSFERASE [3]: 30 u/L | ALBUMIN [3]: 3.71 G/DL | ALKALINE PHOSPHATASE [3]: 186.8 u/L | ASPARTATE AMINOTRANSFERASE [3]: 78.2 u/L | BLOOD UREA NITROGEN [3]: 14.2 mg/dL | CHOLESTEROL [3]: 44.9 mg/dL | CREATINE PHOSPHOKINASE [3]: 334.3 u/L | CREATININE [3]: 0.6 mg/dL | GLUCOSE [3]: 147.2 mg/dL | LACTATE DEHYDROGENASE [3]: 123.1 u/L | LIPASE [3]: 9.6 u/L | PHOSPHORUS [3]: 10.01 mg/dL | POTASSIUM [3]: 6.57 MEQ/L | SODIUM [3]: 149.5 MEQ/L | TOTAL BILIRUBIN [3]: 0.21 mg/dL | TOTAL PROTEIN [3]: 6.66 G/DL | URIC ACID [3]: 1.26 mg/dL
